The text below walks through data of US20140275257A1, “N-ACETYL CYSTEINE COMPOSITIONS IN THE TREATMENT OF SYSTEMIC LUPUS ERYTHEMATOSUS” (Foundation for the State University of New York, priority 2013, published 2014).

One experiment deals with lupus T cells. As to the kind of experiment: Flow cytometry of mitochondrial transmembrane potential, mitochondrial mass, H2O2 and NO in T cells of treated SLE patients. In kind it is in vivo, human. The source says: (§1) Cell viability was monitored with annexin V conjugated to fluorescein isothiocyanate (annexin V-FITC conjugate), annexin V conjugated to phycoerythrin (annexin V-PE conjugate), or annexin V conjugated to fluorochrome Cy5 (Annexin V-Cy5 conjugate) matched with emission spectra of propidium iodide (PrI) to detect Annexin V+/PrI− apoptotic cells. Mitochondrial transmembrane potential (ΔΨm) was monitored with mitochondrial potentiometric dyes such as 3,3′-dihexyloxacarbocyanine iodide ((DiOC6), using an excitation wavelength of […] and emission at 488 nm, recorded at 525 nm in the FL-1 (green fluorescence) channel); and tetramethylrhodamine, methyl ester ((TMRM), using an excitation wavelength of […], and emission at 543 nm, recorded at 567 nm in the FL-2 (yellow/orange fluorescence) channel), potential-insensitive mitochondrial dyes such as MitoTracker Green-FM (MTG, 100 nM; excitation: 490 nm, emission: 516 nm recorded in FL-1) or nonyl acridine orange (NAO, 50 nM; excitation: 490 nm, emission: 540 nm recorded in FL-1), superoxide sensing hydroethidine (HE, 1 μM) and H2O2-sensing dichlorofluorescein diacetate (DCF-DA, 1 μM), nitric oxide sensor 4-amino-5-methylamino-2′,7′-difluoroflourescein diacetate (DAF-FM, 1 μM, excitation: 495, emission: 515 nm recorded in FL-1), or cytosolic probes (Fluo-3, 1 μM, excitation: 506 nm, emission: 526 nm recorded in FL-1) and mitochondrial Ca^2+-sensitive fluorescent probes (Rhod-2, 1 μM), respectively.
All metabolic and mitochondrial sensor dyes were obtained from Invitrogen (Carlsbad, Calif.) and used as earlier described in Fernandez, D. R. et al., “Activation of mTOR controls the loss of TCR in lupus T cells through HRES-1/Rab4-regulated lysosomal degradation,” J. Immunol., 182: 2063-2073 (2009); Banki, K. et al., “Glutathione Levels and Sensitivity to Apoptosis Are Regulated by changes in Transaldolase expression,” J. Biol. Chem., 271: 32994-33001 (1996); Banki, K. et al., “Elevation of mitochondrial transmembrane potential and reactive oxygen intermediate levels are early events and occur independently from activation of caspases in Fas signaling,” J. Immunol., 162: 1466-1479 (1999); Nagy, G. et al., “T cell activation-induced mitochondrial hyperpolarization is mediated by Ca^2+- and redox-dependent production of nitric oxide,” J. Immunol., 171: 5188-5197 (2003); and Perl, A. et al., “Apoptosis and mitochondrial dysfunction in lymphocytes of patients with systemic lupus erythematosus,” In: Perl, A., editor. Autoimmunity: Methods and Protocol. 1 ed. Totowa, N.J.: Humana; 2004 p. 87-114, the entire disclosures of each of which are incorporated by reference herein.
(§2) NO production (FIG. 3D: DAF-FM fluorescence), and mitochondrial mass were measured in T cell subsets following CD3/CD28 stimulation for 16 h (FIG. 3E: NAO fluorescence). FIG. 3F: Spontaneous apoptosis rate was enumerated by the percentage of Ann V+/PrI− T cells after culture for 16 h. FIG. 3G: Activation-induced apoptosis was assessed following CD3/CD28 co-stimulation for 16 h. Visits: visit 1, before 1st NAC dose; visit 2, after 1-month treatment; visit 3, after 2-month treatment; visit 4, after 3-month treatment; visit 5, after 1-month washout.
On the technique in general: A flow cytometer gives signals particle by particle.

The next experiment addresses mTOR (Homo sapiens, UniProt P42345). Particulars: O'Loghlen et al. (2006); cited from earlier work.
The subject of another experiment is DN T cells. Nature of the experiment: Spontaneous and CD3/CD28-induced apoptosis of T cells (annexin V/PrI flow cytometry). It counts as in vivo, human. Particulars: NAC-treated patients; for CD3/CD28-induced apoptosis: baseline 16.0±1.6%.
Description: as §1, §2
Unstimulated cells and cells stimulated with CD3/CD28 for 16 h were examined and cell death pathway selection in T cells was measured by concurrent staining with annexin V-Alexa 647 and propidium iodide (PrI) as well as cell type-specific antigens. T-cell subsets were analyzed by staining with antibodies to CD4, CD8, and CD25. B cells were identified by CD 19 staining

The test system of a further experiment is SLE patients. Nature of the experiment: Fatigue Assessment Scale (FAS) in NAC pilot study. It counts as in vivo, human. Particulars: for FAS: all NAC doses combined, visit 1 28.5. From the text:
Fatigue, a nonspecific symptom that is highly prevalent among patients in primary care, is not only an important component of many diseases or disorders, including SLE, but can also play a substantial role in healthy populations. Fatigue is considered the most disabling symptom in a majority of SLE patients. (Krupp, L. B. et al., “A study of fatigue in systemic lupus erythematosus,” J. Rheumatol., 17: 1450-1452 (1990)). The Fatigue Assessment Scale (FAS) is a 10-item unidimensional subjective fatigue scale that measures chronic fatigue. For each statement, one chooses one out of five answer categories varying from “never” to “always: 1=never; 2=sometimes; 3=regularly; 4=often; and 5=always. (Michielsen, H. J. et al., “Psychometric qualities of a brief self-rated fatigue measure: The Fatigue Assessment Scale,” Journal of Psychosomatic Research, 54: 345-352 (2003)).
Fatigue was assessed by using a validated Fatigue Assessment Scale (FAS), a self-questionnaire that provides a subjective measurement of fatigue severity and has shown to have a high degree of internal consistency, validity, and sensitivity to changes in clinical condition, as described in Michielsen, H. J. et al., “Psychometric qualities of a brief self-rated fatigue measure: The Fatigue Assessment Scale,” J. Psychosom. Res., 54(4): 345-352 (2003), the entire content of which is incorporated by reference herein.
Lupus disease activity was measured by SLEDAI and BILAG and fatigue was evaluated by FAC at baseline (visit 1) as well as monthly during a 3-month intervention (visits 2-4) and after a 1-month washout period (visit 5).

The mark [1] stands for this setting: Double Negative (DN) T cells after 3-month NAC treatment, declined after washout.

`CC(=O)N[C@@H](CS)C(=O)O` [NAC, N-acetyl-L-cysteine]: the Mitochondrial mass result in the experiment with lupus T cells (DN T cells following CD3/CD28 co-stimulation) is reported as “robustly increased”; in the experiment on lupus T cells (setting [1]), “increased”. Besides, the H2O2 levels entry in the experiment on lupus T cells (setting [1]) is on record as “increased”. In the experiment on lupus T cells (after 3 months, p=0.002), the “production of NO” value was 1.61±0.17 fold. Moreover, the “Δψm (mitochondrial transmembrane potential)” value in the experiment on lupus T cells (all T cells, p=0.0001) is on record as “increased”. Besides, the “effect on mTOR in vitro” value at mTOR is “inhibits”. Moreover, the CD3/CD28-induced apoptosis is recorded as 25.4±2.6% in the experiment with DN T cells (after 2 months, p=0.0006); 23.5±2.1% in the experiment with DN T cells (after 3 months, p=0.0004); 22.7±2.6% in the experiment on DN T cells (after 4 months, p=0.0313). In addition, the “Spontaneous apoptosis rate of DN T cells” value with DN T cells (after 4 months, baseline 10.1±1.3%, p=0.035) turned out to be 15.2±2.3%. In addition, the “effect on SLE disease activity, FAS” value in the experiment on SLE patients (NAC dose 1 (1.2 g/day)) is reported as “did not influence”. For the same molecule, the “effect on FAS” value with SLE patients (NAC dose 2 (2.4 g/day) and dose 3 (4.8 g/day), after 2 months (p=0.002) and 3 months (p=0.004)) is on record as “reduced”. Besides, the “effect on FAS relative to placebo (mixed model analysis)” value in the experiment on SLE patients (NAC dosing group 2, XTMIXED z=−2.08, p=0.038) is given as “reduction”. Besides, the FAS in the experiment on SLE patients (visit 3 (2 months), p=0.0006) is given as 24.1; in the experiment with SLE patients (visit 4 (3 months), p=0.005), 23.9; in the experiment with SLE patients (visit 5 (after 1 month washout), p=0.034), 24.8.
